Reference: patent publication US4891374A, “Imidazo- and triazolothiadiazines” (Hoechst Aktiengesellschaft, priority 1987, dated 1990)
Counter-ions that a name gives are not always drawn.

Legend:
[1] = test system: mitochondrial lipid peroxidation; assay: In-vitro inhibition of lipid peroxidation (thiobarbituric acid test), mitochondria; type: biochemical; details: rat liver mitochondria
Description: (§1) Further convincing evidence of the pronounced protective action of the compounds according to the invention against aggressive oxygen radicals is provided by the thiobarbituric acid test of A. Ottolenghi (Arch. Biochem. Biophys. 79 (1959) pp. 355-363). Using this in-vitro method, the influence on microsomal and mitochondrial lipid peroxidation by antioxidatively active preparations can be determined from the malonodialdehyde produced on oxidative degradation of membrane-bound, polyunsaturated fatty acids.
(§2) Here too, the compounds of the formula I exerted a strong inhibitory action.

[2] = test system: Adjuvant arthritis; assay: Adjuvant arthritis (Pearson): reduction in increase in paw volume; type: in vivo, male rats of the Wistar-Lewis strain; details: 50 mg/kg p.o. once daily day 1 to day 5; reduction in increase in paw volume vs control
Experimental: The investigations were carried out using the method of Pearson (Arthrit. Rheum. 2 (1959), p. 44). The experimental animals used were male rats of the Wistar-Lewis strain having a body weight between 130 and 200 g. Compounds to be tested were administered orally (p.o.) once daily from day 1 to day 5 of the experiment in doses of 50 mg per kg of body weight. The animals in a control group were given only the vehicle. Each preparation group and the control group contained 8 animals. The criterion used to determine the action was the percentage reduction in the increase in paw volume compared to that of the untreated control group.

[3] = test system: lymphocytes; assay: Inhibition of immunopathological processes: adjuvant arthritis, immune activity of lymphocytes towards mitogens; type: in vivo, rat
[4] = test system: Adriamycin (doxorubicin) induced inflammation; assay: Adriamycin-induced inflammation (paw volume); type: in vivo, male Sprague-Dawley rats; details: for protective effect against Adriamycin-induced tissue destruction: orally once daily on 4 successive days
Description: According to current opinion, aggressive oxygen radicals, which are formed to excess during the chronic inflammation process and, as highly toxic inflammation mediators themselves, perpetually maintain the destruction of connective tissue which proceeds via irreversible lipid peroxidation of the cell membranes, participate prominently in the progressive course, caused by a number of factors, of rheumatoid arthritis and other inflammatory disorders. As a consequence, pharmaceuticals having an antioxidative action and having the capability to deactivate these extremely cytotoxic oxygen radicals should allow specific intervention in the chronic course of the inflammation. A suitable animal model for this type of tissue destruction caused by oxygen radicals is Adriamycin (doxorubicin) induced inflammation in the rat. The investigations were carried out using the method of D. M. Siegel et al. (Inflammation 4 (1980), p. 233) on male Sprague-Dawley rats having a body weight between 200 and 230 g in groups each containing 7 animals, which received 0.1 mg of Adriamycin, dissolved in 0.1 ml of 0.9% strength sodium chloride solution, by means of subcutaneous injection into the left rear paw. The increase in paw volume was determined 72 hours later by plethysmographic measurement as a measure of the degree of inflammation. The test preparations were administered orally in 1% strength aqueous carboxymethylcellulose suspension once daily on 4 successive days, starting with the day of Adriamycin injection.

[5] = in vivo; details: mouse, ip
Experimental: The LD50 values were determined by standard methods from the mortality occurring within 7 days in NMRI (Naval Medical Research Institute) mice (6 animals per dose) after a single intraperitoneal (i.p.) administration.

[6] = in vivo; details: rat, po
Experimental: The investigation was in each case carried out on 10 male Sprague-Dawley rats whose gastric mucous membrane had been sensitized by hunger stress. The body weight of the animals was between 200 and 300 g. While allowing free access to the drinking water, the feed was withdrawn 48 hours before administration of the test preparations until sacrifice of the animals. The rats were sacrificed 24 hours after oral administration of the substance, and the stomachs were removed, cleaned under running water and inspected for mucous membrane lesions. All macroscopically visible lesions were regarded as ulcers. The number of animals having ulcers was determined per dose, and this figure was used to calculate, by the method of Litchfield and Wilcoxon (J. Pharmacol. Exp. Ther. 96 (1949), p. 99), the UD50 values, ie. the doses at which lesions were caused in 50% of the animals.

[7] = test system: lymphocytes from the spleen; assay: Inhibition of immunopathological processes: type II collagen-induced arthritis, immune activity of spleen lymphocytes towards mitogens; type: in vivo, male Wistar rats; details: 20-day treatment phase
Description: It is generally accepted today that the advanced course of inflammatory rheumatic disorders is caused mainly by disfunctions in the immune system and that causal therapy can only succeed using medicaments which are capable of interrupting these immunopathological processes.
In this experiment, arthritis was induced in male Wistar rats by means of type II collagen, which could be obtained by standard methods of Miller and Rhodes (Meth. Enzymol. 82 (1982), p. 33) from the nasal septum of the calf and, mixed with Freund's incomplete adjuvant, was injected intradermally into the animals. This immunization procedure was repeated 7 days later. 20 days after the initial immunization, the sick rats were divided into groups each containing 7 animals, which, in the subsequent 20-day treatment phase, received the respective test substance or the pure vehicle (control group) once daily orally.
On day 41 of the experiment, ie. one day after the final administration of substance, lymphocytes were obtained from the spleen of the experimental animals and their immune activity towards mitogens was investigated, since the immune status of lymphocytes is also sensitively impaired in this model.

[8] = test system: 5-lipoxygenase; assay: Inhibition of 5-lipoxygenase in isolated polymorphonuclear granulocytes (LTB4 and 5-HETE formation); type: cell-based, human; details: 10^-5 to 10^-6 mol/l; pre-incubation 15 minutes; calcium ionophor A 23 187-stimulated; 15 minutes at 37° C.
Experimental: The inhibitory action of the compounds according to the invention on 5-lipoxygenase-catalyzed degradation of arachidonic acid was determined, as usual, in in-vitro experiments on isolated polymorphonuclear human granulocytes. To this purpose, cells stimulated by calcium ionophor A 23 187 (Calbiochem GmbH, Frankfurt/Main, FRG, Biochemical and Immunochemical Catalog 1985, p. 284) were incubated with ^14 C-labeled arachidonic acid, and the major radioactive degradation products of arachidonic acid formed after 15 minutes at 37° C. by biotransformation, 5-hydroxyeicosatetraenoic acid (5-HETE) and leucotriene B4 (LTB4), which has a particularly strong pro-inflammatory action, were determined quantitatively with the aid of a radio monitor after separation by high-pressure liquid chromatography (HPLC).

[9] = test system: microsomal lipid peroxidation; assay: In-vitro inhibition of lipid peroxidation (thiobarbituric acid test), microsomes; type: biochemical; details: rat liver microsomes
Description: as §1, §2

SMILES | Adjuvant Arthritis (% inhibition at 50 mg/kg p.o.) [2] [%] | LD50 at 168 h [5] [mg/kg] | TD50 at 24 h [6] [mg/kg] | also measured
CC(C)(C)c1cc(C2=NN3CCN=C3SC2)cc(C(C)(C)C)c1O [Example 1, 3-(3,5-Di-tert.butyl-4-hydroxyphenyl)-6,7-dihydro-2H-imidazo[2,1-b][1,3,4]thiadiazine hydrochloride] | 62 | > 1200 | 400 | IC50 [1]: 4000 nM; normalization of the immunoreactivity ([3]; oral administration of 20 mg/kg): substantial normalization of the immunoreactivity; inhibition of Adriamycin-induced tissue destruction ([4]; 80 mg/kg p.o. once daily on 4 successive days, paw volume 72 hours after Adriamycin): 55%; protective effect against Adriamycin-induced tissue destruction [4]: dose-dependent protective effect; immune function of B lymphocytes ([7]; 25 mg/kg p.o. once daily): completely normalized; immune function of T lymphocytes ([7]; 25 mg/kg p.o. once daily): completely normalized; inhibition of formation of 5-HETE [8]: significantly inhibit; inhibition of formation of LTB4 [8]: significantly inhibit; IC50 [9]: 500 nM
CC1SC2=NCCN2N=C1c1cc(C(C)(C)C)c(O)c(C(C)(C)C)c1 (stereo not shown) [Example 2, 3-(3,5-Di-tert.butyl-4-hydroxyphenyl)-2-methyl-6,7-dihydro-2H-imidazo[2,1-b][1,3,4]thiadiazine hydrochloride] | 63 | > 1200 | 200 | –
CC(C)(C)c1cc(C2=Nn3ccnc3SC2)cc(C(C)(C)C)c1O [Example 4, 3-(3,5-Di-tert.butyl-4-hydroxyphenyl)-2H-imidazo[2,1-b][1,3,4]thiadiazine hydrochloride] | 69 | 300 to 600 | > 200 | –
CC1Sc2nncn2N=C1c1cc(C(C)(C)C)c(O)c(C(C)(C)C)c1 (stereo not shown) [Example 5, 3-(3,5-Di-tert.butyl-4-hydroxyphenyl)-2-methyl-2H-s-triazolo[3,4-b][1,3,4]thiadiazine] | 56 | > 1200 | > 200 | –
CC(C)(C)c1cc(C2=NN3CC(=O)N=C3SC2)cc(C(C)(C)C)c1O [Example 6, 3-(3,5-Di-tert.butyl-4-hydroxyphenyl)-7-oxo-6,7-dihydro-2H-imidazo[2,1-b][1,3,4]-thiadiazine hydrobromide] | 73 | 300 to 600 | > 200 | –
CC(C)(C)c1cc(C2=NN3C(=O)CN=C3SC2)cc(C(C)(C)C)c1O [Example 7, 3-(3,5-Di-tert.butyl-4-hydroxyphenyl)-6-oxo-6,7-dihydro-2H-imidazo[2,1-b][1,3,4]thiadiazine hydrobromide] | 59 | 300 to 600 | > 200 | –
COc1ccc2cc(C(C)C(=O)O)ccc2c1 (stereo not shown) [naproxen, 2-(6-methoxy2-naphthyl)-propionic acid, reference compound] | 55 | – | – | stimulating action on suppressed immunological response ([3]; doses up to 25 mg/kg): ineffective; protective effect against Adriamycin-induced tissue destruction [4]: ineffective; curative effects on the greatly weakened immune system ([7]; once daily orally): no action
